Measurements as given in US20120214824A1, “PROTEOSTASIS REGULATORS” (priority 2010, published 2012).

Tests used:
firefly luciferase = test: Luciferase folding assay (Lucif.); assay type: cell-based, human; settings: HeLa-luciferase cells; for Lucif. (luciferase activity induction): Table 1a
Source text: Firefly luciferase is a commonly used bioluminescent reporter. This monomeric enzyme of 61 kDa catalyzes a two-step oxidation reaction to yield light, usually in the green to yellow region, typically 550-570 nm. The first step of this reaction is activation of the luciferyl carboxylate by ATP to yield a reactive mixed anhydride. In the second step, the activated intermediate reacts with oxygen to create a transient dioxetane that breaks down to the oxidized products, oxyluciferin and CO2. Upon mixing with substrates, firefly luciferase produces an initial burst of light that decays over about 15 seconds to a low level of sustained luminescence. This kinetic profile reflects the slow release of the enzymatic product, thus limiting catalytic turnover after the initial reaction.
This mammalian cell based assay that used firefly luciferase as a sensor was used to screen for compounds that may modulate the cellular folding environment.
HeLa luciferase cell lines: Frozen bullets containing the cells were thawed briefly at 37° C. then placed into a T-150 flask containing 30-35 ml DMEM medium+Penicillin/Strep (1% final+10% FBS (final)+Geneticin @ 200-500 ug/ml. Cell cultures were maintained at 37° C. with 5% CO2 and water in the bottom of the incubator to keep cells healthy. Upon expanding cell line, luciferase measurements were taken to make sure that activity levels were between 2000-5000 (RLU) when plated at 15K/well in a 96-well format (Bright-Glo Promega) before compound treatment.
Compound treatment of HeLa-luciferase cells: HeLa-luciferase WT cells were plated in a 96-well format at 15K/well the day prior to performing compound treatment and/or luciferase assay. […] Final volume used per well was 90 uL. Flat bottom, white polystyrene plates were used for plating the cells.
For compound treatment, stocks of compounds were made up at 10 mM concentration in DMSO. Stocks compounds were diluted by 100× fold in the same media used for culturing the cells—this leads to a 0.1 mM (or 100 uM) concentration. After diluting the compound in media, 10 uL of the 100 uM solution was placed into each well of cells (90 uL); making the final concentration of the compound 10 uM. If serial dilutions of compounds were tested, serial dilutions of compounds were first made in DMSO accordingly, and further diluted in the media, prior to adding to cells. This procedure allowed for constant final levels of DMSO concentrations, regardless of initial compound concentration.
Performing luciferase activity assay: Bright-Glo Luciferase Assay Reagent (Promega cat #: E2610, E2620, E2650) was thawed out at RT in a water bath. Alternatively, Bright-Glo Luciferase assay buffer (prior to mixing with substrate) was stored overnight at RT, prior to using.
Following compound treatment, plates were removed from 37° C. and allowed to acclimate to RT for 5-10 min. Bright-Glo reagent was added to each cell-containing well in a 1:1 ratio (e.g., 100 uL of Bright Glo for each 100 uL cells).
Plates were placed on a plate shaker for 5 min, removing any air bubbles on the surface (which may interfere with proper reads), and then read on an EnVision 2104 Multilabel reader, Emission filter Luminescence 700, barcode 212, WL 400-700 nm.
Data for representative compounds in this assay are shown under the heading “Lucif.”

HspA5 = test: Multigene assay (QuantiGene Plex 2.0), mouse MEF cell line; assay type: cell-based; settings: 6 hours post-compound treatment
Experimental: (§1) This assay used the QuantiGene Plex 2.0 Reagent System from Affymetrix. This assay combines the use of bDNA (branch DNA) and xMAP magnetic capture beads from Luminex Technologies to quantitatively and simultaneously detect multiple mRNA transcripts per well. The overall procedure was performed according to the QuantiGene Plex 2.0 Reagent System instruction manual from Affymetrix.
(§2) Cells were seeded at a density of 12,000 cells/well in 96-well plates with an overnight incubation at 37° C., 5% CO2. Cells were treated with serially diluted compounds in a 7-point dose dependent manner. Cell lysis with 50% [v/v] Panomics Lysis Mixture (Lysis Mixture+10 μl/ml 25 Proteinase K) was performed 6 hours post-compound treatment. Lysed cells were heated at 50° C. to ensure appropriate lysing and the plates were then frozen at −80° C. Cell lysates, thawed at room temperature on the day of the assay, were pooled with mouse 8-gene multiplex probe sets and with 8 different sets of magnetic capture beads (Luminex Technology, Austin, Tex.) in a 100 μl/well volume. Biomek FX was used at every liquid transfer step. The eight plates containing lysate-probe-bead mixtures were incubated at 54° C.±1° C. on a shaking platform for an overnight incubation in the dark (18-20 hours). The following day the hybridization plates were compressed by transferring the hybridized lysates into a single magnetic capture plate. The plate was kept on a magnet to hold the beads and then washed with Panomics Wash Buffer 2.0 on a BioTek ELx405 select plate washer to remove any unbound sample. This step was followed by serial hybridizations and washings of the bDNA pre-amplifier (1 hour, 50° C.), bDNA amplifier (1 hour, 50° C.), label probe (1 hour, 50° C.), and streptavidin-phycoerythrin (SAPE, 30 minutes, room temperature). (Zhang, A. et al. Small interfering RNA and gene expression analysis using a multiplex branched DNA assay without RNA purification. J Biomol Screen 10, 549-56 (2005)). The plate was then washed with SAPE wash buffer to remove unbound SAPE and each well was analyzed with the Luminex FlexMap3D (Luminex, Austin, Tex.). SAPE fluorescence measured from each bead was proportional to the number of mRNA transcripts captured by the beads (Zheng, Z., Luo, Y. & McMaster, G. K. Sensitive and quantitative measurement of gene expression directly from a small amount of whole blood. Clin Chem 52, 1294-302 (2006)). Fold changes in gene expression were obtained for each gene per well by normalizing the raw data first to the DMSO control and then to a housekeeping gene (TBP-TATA binding protein or Tub1-alpha-tubulin).

GCLM = test: as above; assay type: cell-based; settings: 6 hours post-compound treatment
Experimental: as §1, §2

DDIT3 = test: as above; assay type: cell-based; settings: 6 hours post-compound treatment
Experimental: as §1, §2

HSPA1a = test: as above; assay type: cell-based; settings: 6 hours post-compound treatment
Experimental: as §1, §2

TUB1 = test: as above; assay type: cell-based; settings: 6 hours post-compound treatment
Experimental: as §1, §2

HMOX = test: as above; assay type: cell-based; settings: 6 hours post-compound treatment
Experimental: as §1, §2

BCL2 = test: as above; assay type: cell-based; settings: 6 hours post-compound treatment
Experimental: as §1, §2

SMILES | Lucif (luciferase activity induction) (firefly luciferase; Table 2a) | HspA5 gene induction (HspA5; Table 2b) | GCLM gene induction (GCLM; Table 2a) | DDIT3 gene induction (DDIT3; Table 2a) | HSPA1a gene induction (HSPA1a; Table 2b) | TUB1 gene induction (TUB1; Table 2a) | HMOX gene induction (HMOX; Table 2b) | BCL2 gene induction (BCL2; Table 2b) | also measured
CC1=C(C(=O)OCC(C)C)C(c2ccc(F)cc2)C2=C(CC(c3cccs3)CC2=O)N1 (stereo not shown) [drawing 26/Me/COOCH2CHMe2/p-F #2] |  |  |  |  |  |  |  |  | Lucif. (luciferase activity induction) (firefly luciferase): + (+ indicates a induction of greater than 2 fold); HspA5 gene induction (HspA5; Table 1b): − (− Indicates less than 2 fold induction); GCLM gene induction (GCLM; Table 1a): − (− Indicates less than 2 fold induction); DDIT3 gene induction (DDIT3; Table 1a): + (+ indicates a induction of greater than 2 fold); HSPA1a gene induction (HSPA1a; Table 1b): − (− Indicates less than 2 fold induction); TUB1 gene induction (TUB1; Table 1a): − (− Indicates less than 2 fold induction); HMOX gene induction (HMOX; Table 1b): − (− Indicates less than 2 fold induction); BCL2 gene induction (BCL2; Table 1b): − (− Indicates less than 2 fold induction)
N#CC1=C(N)NC2=C(C(=O)CC(c3ccccc3)C2)C1c1ccc(F)cc1 (stereo not shown) [drawing 27/NH2/CN/p-F/H] | + (+ indicates a induction of greater than 2 fold) | − (− Indicates less than 2 fold induction) | − (− Indicates less than 2 fold induction) | + (+ indicates a induction of greater than 2 fold) | + (+ indicates a induction of greater than 2 fold) | − (− Indicates less than 2 fold induction) | − (− Indicates less than 2 fold induction) | − (− Indicates less than 2 fold induction) | 
CC1=C(C#N)C(c2ccc(F)cc2)C2=C(CC(c3ccccc3)CC2=O)N1 (stereo not shown) [drawing 27/Me/CN/p-F/H] | + (+ indicates a induction of greater than 2 fold) | − (− Indicates less than 2 fold induction) | − (− Indicates less than 2 fold induction) | + (+ indicates a induction of greater than 2 fold) | − (− Indicates less than 2 fold induction) | − (− Indicates less than 2 fold induction) | + (+ indicates a induction of greater than 2 fold) | − (− Indicates less than 2 fold induction) | 
CC(C)Oc1ccccc1C1C(C#N)=C(N)NC2=C1C(=O)CC(c1ccccc1)C2 (stereo not shown) [drawing 27/NH2/CN/o-OCHMe2/H] | + (+ indicates a induction of greater than 2 fold) | − (− Indicates less than 2 fold induction) | − (− Indicates less than 2 fold induction) | + (+ indicates a induction of greater than 2 fold) | + (+ indicates a induction of greater than 2 fold) | − (− Indicates less than 2 fold induction) | + (+ indicates a induction of greater than 2 fold) | − (− Indicates less than 2 fold induction) | 
CCCc1n[nH]c2c1C(c1cc(Br)ccc1O)C(C#N)=C(N)O2 (stereo not shown) [drawing 28/(CH2)2Me/2-OH-5-Br] |  |  |  |  |  |  |  |  | Lucif (luciferase activity induction) (firefly luciferase; Table 3a): + (+ indicates a induction of greater than 2 fold); HspA5 gene induction (HspA5; Table 3b): − (− Indicates less than 2 fold induction); GCLM gene induction (GCLM; Table 3a): + (+ indicates a induction of greater than 2 fold); DDIT3 gene induction (DDIT3; Table 3a): − (− Indicates less than 2 fold induction); HSPA1a gene induction (HSPA1a; Table 3b): − (− Indicates less than 2 fold induction); TUB1 gene induction (TUB1; Table 3a): − (− Indicates less than 2 fold induction); HMOX gene induction (HMOX; Table 3b): + (+ indicates a induction of greater than 2 fold); BCL2 gene induction (BCL2; Table 3b): − (− Indicates less than 2 fold induction)
CC1=C(C#N)C(c2ccccc2OC(C)C)C2=C(CC(c3ccccc3)CC2=O)N1 (stereo not shown) [drawing 27/Me/CN/o-OCHMe2/H] | + (+ indicates a induction of greater than 2 fold) | − (− Indicates less than 2 fold induction) | − (− Indicates less than 2 fold induction) | − (− Indicates less than 2 fold induction) | − (− Indicates less than 2 fold induction) | − (− Indicates less than 2 fold induction) | − (− Indicates less than 2 fold induction) | − (− Indicates less than 2 fold induction) | 
CCCc1n[nH]c2c1C(c1ccccc1C(F)(F)F)C(C#N)=C(N)O2 (stereo not shown) [drawing 28/(CH2)2Me/2-CF3 #2] |  |  |  |  |  |  |  |  | Lucif (luciferase activity induction) (firefly luciferase; Table 3a): + (+ indicates a induction of greater than 2 fold); HspA5 gene induction (HspA5; Table 3b): − (− Indicates less than 2 fold induction); GCLM gene induction (GCLM; Table 3a): + (+ indicates a induction of greater than 2 fold); DDIT3 gene induction (DDIT3; Table 3a): − (− Indicates less than 2 fold induction); HSPA1a gene induction (HSPA1a; Table 3b): − (− Indicates less than 2 fold induction); TUB1 gene induction (TUB1; Table 3a): − (− Indicates less than 2 fold induction); HMOX gene induction (HMOX; Table 3b): + (+ indicates a induction of greater than 2 fold); BCL2 gene induction (BCL2; Table 3b): − (− Indicates less than 2 fold induction)
CC1=C(C(=O)OCC(C)C)C(c2ccc(F)cc2)C2=C(CC(c3cccs3)CC2=O)N1 (stereo not shown) [drawing 26/Me/COOCH2CHMe2/p-F #1] |  |  |  |  |  |  |  |  | Lucif. (luciferase activity induction) (firefly luciferase): + (+ indicates a induction of greater than 2 fold)
COCC1=C(C(=O)OCC(C)C)C(c2ccc(F)cc2)C2=C(CC(c3cccs3)CC2=O)N1 (stereo not shown) [drawing 26/CH2OMe/COOCH2CHMe2/p-F] |  |  |  |  |  |  |  |  | HspA5 gene induction (HspA5; Table 1b): − (− Indicates less than 2 fold induction); GCLM gene induction (GCLM; Table 1a): − (− Indicates less than 2 fold induction); DDIT3 gene induction (DDIT3; Table 1a): + (+ indicates a induction of greater than 2 fold); HSPA1a gene induction (HSPA1a; Table 1b): − (− Indicates less than 2 fold induction); TUB1 gene induction (TUB1; Table 1a): − (− Indicates less than 2 fold induction); HMOX gene induction (HMOX; Table 1b): + (+ indicates a induction of greater than 2 fold); BCL2 gene induction (BCL2; Table 1b): − (− Indicates less than 2 fold induction)
